Source: BigSolDB 2.1

Cc1ccc(S(=O)[O-])cc1.[Na+]
solubility (mole fraction)
Conditions	in DMF	in acetone	in acetonitrile	in ethanol	in isopropanol	in methanol	in n-butanol	in n-propanol	in water
278.15 K	0.00114	0.00039	5.8e-05	0.0031	0.00083	0.0234	0.00032	0.00301	0.0172
283.15 K	0.00169	0.00047	7.7e-05	0.00328	0.00086	0.0313	0.00035	0.00311	0.0201
288.15 K	0.0025	0.00057	9.9e-05	0.00337	0.00089	0.04	0.00039	0.00321	0.0234
293.15 K	0.00365	0.00067	0.00013	0.00345	0.00093	0.0511	0.00043	0.00331	0.0272
298.15 K	0.00525	0.0008	0.00016	0.00354	0.00097	0.0665	0.00047	0.00347	0.0314
303.15 K	0.00747	0.00094	0.00021	0.00363	0.001	0.0851	0.00052	0.00364	0.0358
308.15 K	0.0105	0.00111	0.00027	0.00373	0.00105	0.106	0.00057	0.00381	0.0404
313.15 K	0.0146	0.0013	0.00033	0.00383	0.00109	0.13	0.00063	0.00401	0.0453
318.15 K	0.02	0.00151	0.00041	0.00393	0.00113	0.156	0.00069	0.00421	0.0514
